The results in this text go back to ChEMBL document CHEMBL5154736, “Stereochemically altered cephalosporins as potent inhibitors of New Delhi metallo-β-lactamases” (Eur J Med Chem, 2022).

Converted amounts (≈) assume the structure as drawn. The source made the active and inactive calls.

Series [1] in a line: Inhibition of bacterial NDM-1 using CDC-1 as substrate incubated for 30 mins. On the set-up: species or system Bacteria.
Series [2] is described as follows: Inhibition of bacterial IMP-1 using CDC-1 as substrate incubated for 30 mins. On the set-up: species or system Bacteria.
Series [3] in a line: Inhibition of bacterial VIM-27 using CDC-1 as substrate incubated for 30 mins. On the set-up: species or system Bacteria.
The test system of series [4] is Escherichia coli. Put plainly: Antibacterial activity against Escherichia coli expressing NDM-1 measured by broth microdilution method. In kind it is functional. (Dilution methods test growth across graded concentrations, often in twofold steps.)
A short description of series [5]: Inhibition of bacterial NDM-3 using CDC-1 as substrate incubated for 30 mins. On the set-up: species or system Bacteria.
The nature of series [6]: Inhibition of bacterial NDM-4 using CDC-1 as substrate incubated for 30 mins. On the set-up: species or system Bacteria.
A short description of series [7]: Inhibition of bacterial NDM-12 using CDC-1 as substrate incubated for 30 mins. On the set-up: species or system Bacteria.
Series [8] in a line: Inhibition of bacterial NDM-13 using CDC-1 as substrate incubated for 30 mins. On the set-up: species or system Bacteria.
Series [9] can be described thus: Competitive inhibition of bacterial NDM-1 using CDC-1 as substrate and measured by Dixon plot analysis. On the set-up: species or system Bacteria.
The subject of series [10] is HEK293. Put plainly: Cytotoxicity against human HEK293 cells at 1 to 100 uM and measured by MTT assay. The following applies: hek293, 100 µM, dose 1-100 µM. The series is classed as toxicity, cell-based.
For series [11], the system named is HEK293. Put plainly: Cytotoxicity against human HEK293 cells at 50 uM and measured by Calcien AM staining method. In kind it is toxicity, cell-based. The following applies: hek293, 50 µM.
The subject of series [12] is HEK293. Put plainly: Cytotoxicity against human HEK293 cells at 50 uM and measured by propidium iodide (PI) staining method. In kind it is toxicity, cell-based. The conditions noted are these: hek293, 50 µM.
Series [13] deals with Escherichia coli. Put plainly: Potentiation of meropenem-induced antibacterial activity against Escherichia coli expressing NDM-1 at 0.25 ug/ml assessed as meropenem MIC by broth microdilution method. In kind it is functional. The conditions noted are these: dose 0.25 µg/ml.
The subject of series [14] is Escherichia coli. Put plainly: Potentiation of meropenem-induced antibacterial activity against Escherichia coli expressing NDM-1 at 8 ug/ml assessed as meropenem MIC by broth microdilution method. The series is classed as functional. The conditions noted are these: dose 8 µg/ml.
The next series relates to Bacteria. Put plainly: Reversible inhibition of bacterial NDM-1 at 10 uM incubated for 30 mins.

What is called IC50 is the concentration at which inhibition is half-maximal. As for `CO[C@H]1C(=O)N2C(C(=O)O)=C(CSc3ccccc3)CS[C@H]12`, the IC50 in series [1] came to 2 µM; in series [2], 7.4 µM; in series [3] it was 8.1 µM.

On to `CO[C@H]1C(=O)N2C(C(=O)O)=C(CSc3ccc(NC(C)=O)cc3)CS[C@H]12`, for which the results for the IC50 in series [1], in series [2] and in series [3] were 0.2 µM, 8.4 µM and 5.8 µM, respectively.

Regarding `CO[C@H]1C(=O)N2C(C(=O)O)=C(CSc3nncs3)CS[C@H]12`, the IC50 is 1.6 µM in series [1], 15 µM in series [2] and 8.1 µM in [3].

`CO[C@H]1C(=O)N2C(C(=O)O)=C(COC(C)=O)CS[C@H]12` showed an IC50 in series [1] of 0.99 µM.

Take `CCSCC1=C(C(=O)O)N2C(=O)[C@H](OC)[C@H]2SC1`: the IC50 in series [1] came out at 1.2 µM.

With `CCO[C@H]1C(=O)N2C(C(=O)O)=C(CSC(=O)c3ccccc3)CS[C@H]12`, the figures for the IC50 in series [1], in series [2] and in [3] were 7.4 µM, 4.6 µM and 3.6 µM, respectively.

Consider `CO[C@H]1C(=O)N2C(C(=O)O)=C(CSC(=O)c3ccccc3)CS[C@H]12`, for which the IC50 in series [1] was above 50 µM; in series [2] it was 7.9 µM; in [3], 9.1 µM.

For the compound `CO[C@H]1C(=O)N2C(C(=O)O)=C(CSc3ncccn3)CS[C@H]12`, the IC50 stood at 0.63 µM in series [1], 8.8 µM in series [2] and 8.6 µM in series [3].

Consider `CO[C@H]1C(=O)N2C(C(=O)O)=C(CSC(=O)c3ccccc3)C[S+]([O-])[C@H]12` (stereo not given in full), for which it took 0.25 µM to reach half-maximal inhibition in series [1] (IC50).

Consider `CO[C@H]1C(=O)N2C(C(=O)O)=C(CSc3nc4ccc([N+](=O)[O-])cc4s3)CS[C@H]12`, for which the IC50 was 0.76 µM in series [1], 15 µM in series [2] and 1 µM in [3].

For `CCS[C@H]1C(=O)N2C(C(=O)O)=C(CSC(=O)c3ccccc3)CS[C@H]12`, the IC50 in [1] came out at 0.31 µM; in series [2], 0.8 µM; in [3], 5.2 µM.

For the compound `O=C(O)C1=C(CSC(=O)c2ccccc2)CS[C@@H]2CC(=O)N12`, in series [1], the IC50 was above 50 µM.

Turning to `O=C(O)C1=C(CSC(=O)c2ccccc2)CS[C@@H]2[C@@H](O)C(=O)N12`, in series [1], the IC50 was 0.46 µM.

In the case of `CO[C@H]1C(=O)N2C(C(=O)O)=C(CSc3nnc(C)s3)CS[C@H]12`, the figures for the IC50 in series [1], in series [2] and in series [3] were 0.55 µM, 16 µM and 13 µM, respectively.

Broadly, the MIC is the smallest concentration in the dilution series that meets the test's criterion for growth inhibition. For the compound `C[C@@H](O)[C@H]1C(=O)N2C(C(=O)O)=C(S[C@@H]3CN[C@H](C(=O)N(C)C)C3)[C@H](C)[C@H]12` [MEROPENEM], the MIC in the series on Escherichia coli [4] turned out to be 0.031 µg/mL (≈ 0.0808 µM).

For `CCOC(=O)CSCC1=C(C(=O)O)N2C(=O)[C@H](OC)[C@H]2SC1`, in series [1], the IC50 came to 0.62 µM.

`O=C(Cc1ccccc1)N[C@H]1C(=O)N2C(C(=O)O)=C(CSC(=O)c3ccccc3)CS[C@H]12` showed an IC50 in series [1] of 0.22 µM.

As for `CC(C)O[C@H]1C(=O)N2C(C(=O)O)=C(CSC(=O)c3ccccc3)CS[C@H]12`, in series [1], the IC50 was 1.4 µM.

In the case of `CO[C@H]1C(=O)N2C(C(=O)O)=C(C)CS[C@H]12`, the IC50 in [1] was above 50 µM.

With `CO[C@H]1C(=O)N2C(C(=O)O)=C(CSc3ccc(C(F)(F)F)cc3)CS[C@H]12`, the IC50 was determined as 0.5 µM in series [1], 5.5 µM in series [2] and 7.3 µM in series [3].

The compound `CO[C@H]1C(=O)N2C(C(=O)O)=C(CSC(=O)c3ccccc3)CS(=O)(=O)[C@H]12` showed an IC50 in series [1] above 50 µM.

In series [1], `CO[C@@]1(NC(=O)Cc2ccccc2)C(=O)N2C(C(=O)O)=C(CSC(=O)c3ccccc3)CS[C@@H]21` came in with an IC50 of 9.6 µM.

The Ki is a measure of affinity in units of concentration, obtained from inhibition or displacement. Low values mean tighter binding, high ones weaker binding. Take `CO[C@H]1C(=O)N2C(C(=O)O)=C(CSc3nc4ccccc4s3)CS[C@H]12`: the IC50 was determined as 0.13 µM in [1]; 8 µM in series [2]; 6 µM in [3]; 0.19 µM in series [5]; 0.21 µM in [6]; 0.2 µM in [7]. This compound also displayed an IC50 in series [8] of 0.16 µM. In series [9], this compound displayed a Ki of 0.21 µM. Moreover, the Activity result with HEK293 [10], with HEK293 [11] and in the series on HEK293 [12] was “Non-Toxic” each time. Also, the MIC was determined as 32 µg/mL with Escherichia coli [13] and 16 µg/mL in the series with Escherichia coli [14]. In addition, the inhibition result in the series on Bacteria is “Active”.

In the case of `O=C(O)CN(CCN(CC(=O)O)CC(=O)O)CC(=O)O` [EDETIC ACID], in series [1], the midpoint of inhibition, the IC50, lay at 0.54 µM.

In series [1], `O=C(O)C1=C(CSc2nc3ccccc3s2)CS[C@@H]2CC(=O)N12` had an IC50 above 50 µM.

Take `CO[C@H]1C(=O)N2C(C(=O)O)=C(C[Se]c3ccccc3)CS[C@H]12`: the IC50 in series [1] turned out to be 0.19 µM; in [2], 6.6 µM; in [3] it was 6 µM.

With `O=C(Cc1ccccc1)N[C@@H]1C(=O)N2C(C(=O)O)=C(CSC(=O)c3ccccc3)CS[C@H]12`, in series [1], 9.4 µM corresponded to half-maximal inhibition (IC50).

For `CO[C@H]1C(=O)N2C(C(=O)O)=C(CSc3nnnn3C)CS[C@H]12`, the IC50 in series [1] turned out to be 0.63 µM; in series [2], 20 µM; in [3], 5.5 µM.
